Results: the supplement of paper PMC11424490
Where a name gives a salt, the structure may show the parent alone.

Columns and labels:
NCI-H2122 [1] = test: combination cScore with sotorasib (Bliss gap around IC50) (%PoC); higher = stronger additive effect
Protocol: (§1)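 Combination screen of 179 inhibitors with the KRAS G12C inhibitor sotorasib (AMG510) in dose matrices, CellTiter-Glo readout in NCI-H2122 (72 h), SW837 (144 h) and NCI-H358 cells. The cScore is the mean Bliss-independence gap (expected minus observed viability, in %PoC) over a 3x3 field around the IC50s of both drugs. Positive means additive, and >~10 is stated as clear additive.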

SW837 [2] = test: as above
Protocol: as §1

NCI-H2122 [3] = test: combination cScore with adagrasib (Bliss gap around IC50) (%PoC); higher = stronger additive effect
Summary of the method: (§2)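 The score averages the gap between expected and measured viability under Bliss independence, taken over a field around the IC50 of each single agent or, where an IC50 was not reached, at the highest concentrations. Viability came from CellTiter-Glo luminescence, normalised to vehicle wells as percent of control and fitted with four-parameter curves. NCI-H2122, NCI-H358 and SW837 cells were dosed in concentration matrices 24 h after seeding and grown for 72 h, or 144 h for SW837.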

SW837 [4] = test: as above
Summary of the method: as §2

SMILES: CC(C)(C(=O)NCC(F)(F)C(F)(F)F)C(=O)N[C@@H]1C(=O)Nc2ccccc2-c2ccccc21 + C=CC(=O)N1CCN(c2nc(=O)n(-c3c(C)ccnc3C(C)C)c3nc(-c4c(O)cccc4F)c(F)cc23)[C@@H](C)C1 [sotorasib]
- combination cScore with sotorasib (NCI-H2122 [1]): 2.56
- combination cScore with sotorasib (SW837 [2]): 21.5

SMILES: CCc1cnn2c(NCc3ccc[n+]([O-])c3)cc(N3CCCC[C@H]3CCO)nc12 + C=CC(=O)N1CCN(c2nc(=O)n(-c3c(C)ccnc3C(C)C)c3nc(-c4c(O)cccc4F)c(F)cc23)[C@@H](C)C1 [sotorasib]
- combination cScore with sotorasib (NCI-H2122 [1]): 7.04
- combination cScore with sotorasib (SW837 [2]): 2.65

SMILES: CN(C)CCCC(=O)Nc1n[nH]c2nnc(-c3ccccc3)cc12 + C=CC(=O)N1CCN(c2nc(=O)n(-c3c(C)ccnc3C(C)C)c3nc(-c4c(O)cccc4F)c(F)cc23)[C@@H](C)C1 [sotorasib]
- combination cScore with sotorasib (NCI-H2122 [1]): -11.8
- combination cScore with sotorasib (SW837 [2]): -4.53

SMILES: COc1ccc(Cn2ccc3ccc(C(=O)NO)cc32)cc1 + C=CC(=O)N1CCN(c2nc(=O)n(-c3c(C)ccnc3C(C)C)c3nc(-c4c(O)cccc4F)c(F)cc23)[C@@H](C)C1 [sotorasib]
- combination cScore with sotorasib (NCI-H2122 [1]): 0.89
- combination cScore with sotorasib (SW837 [2]): 10.9

SMILES: COc1ccc2nc3ccc(OC)cc3c(SCCCN)c2c1 + C=CC(=O)N1CCN(c2nc(=O)n(-c3c(C)ccnc3C(C)C)c3nc(-c4c(O)cccc4F)c(F)cc23)[C@@H](C)C1 [sotorasib]
- combination cScore with sotorasib (NCI-H2122 [1]): 11.5
- combination cScore with sotorasib (SW837 [2]): -2.67

SMILES: C[C@@H](Oc1cc(-c2cnn(C3CCNCC3)c2)cnc1N)c1c(Cl)ccc(F)c1Cl + C=CC(=O)N1CCN(c2nc(=O)n(-c3c(C)ccnc3C(C)C)c3nc(-c4c(O)cccc4F)c(F)cc23)[C@@H](C)C1 [sotorasib]
- combination cScore with sotorasib (NCI-H2122 [1]): 2.31
- combination cScore with sotorasib (SW837 [2]): 13.5

SMILES: Cc1[nH]c(/C=C2\C(=O)Nc3ccc(S(=O)(=O)Cc4c(Cl)cccc4Cl)cc32)c(C)c1C(=O)N1CCC[C@@H]1CN1CCCC1 + C=CC(=O)N1CCN(c2nc(=O)n(-c3c(C)ccnc3C(C)C)c3nc(-c4c(O)cccc4F)c(F)cc23)[C@@H](C)C1 [sotorasib]
- combination cScore with sotorasib (NCI-H2122 [1]): 0.62
- combination cScore with sotorasib (SW837 [2]): -0.04

SMILES: NC(=O)c1ccc(-c2nc(-c3ccccn3)c(-c3ccc4c(c3)OCO4)[nH]2)cc1 + C=CC(=O)N1CCN(c2nc(=O)n(-c3c(C)ccnc3C(C)C)c3nc(-c4c(O)cccc4F)c(F)cc23)[C@@H](C)C1 [sotorasib]
- combination cScore with sotorasib (NCI-H2122 [1]): 3.33
- combination cScore with sotorasib (SW837 [2]): 4.91

SMILES: NC(=O)c1cnc(N[C@@H]2CCCC[C@@H]2N)nc1Nc1cccc(-n2nccn2)c1 + C=CC(=O)N1CCN(c2nc(=O)n(-c3c(C)ccnc3C(C)C)c3nc(-c4c(O)cccc4F)c(F)cc23)[C@@H](C)C1 [sotorasib]
- combination cScore with sotorasib (NCI-H2122 [1]): 7.42
- combination cScore with sotorasib (SW837 [2]): -0.31

SMILES: O=[N+]([O-])c1ccc(NCCNc2ncc(-c3ncc[nH]3)c(-c3ccc(Cl)cc3Cl)n2)nc1 + C=CC(=O)N1CCN(c2nc(=O)n(-c3c(C)ccnc3C(C)C)c3nc(-c4c(O)cccc4F)c(F)cc23)[C@@H](C)C1 [sotorasib]
- combination cScore with sotorasib (NCI-H2122 [1]): -9.14
- combination cScore with sotorasib (SW837 [2]): 3.71

SMILES: On1ncc2cc(CCc3nn[nH]n3)ccc21 + C=CC(=O)N1CCN(c2nc(=O)n(-c3c(C)ccnc3C(C)C)c3nc(-c4c(O)cccc4F)c(F)cc23)[C@@H](C)C1 [sotorasib]
- combination cScore with sotorasib (NCI-H2122 [1]): -2.12
- combination cScore with sotorasib (SW837 [2]): -12.1

SMILES: c1ccc(-c2nn3c(c2-c2ccnc4cc(OCCN5CCOCC5)ccc24)CCC3)nc1 + C=CC(=O)N1CCN(c2nc(=O)n(-c3c(C)ccnc3C(C)C)c3nc(-c4c(O)cccc4F)c(F)cc23)[C@@H](C)C1 [sotorasib]
- combination cScore with sotorasib (NCI-H2122 [1]): 8.94
- combination cScore with sotorasib (SW837 [2]): 8.58

SMILES: Cn1nnc2c(C(N)=O)ncn2c1=O [Temozolomide] + C=C(F)C(=O)N1CCN(c2nc(OC[C@@H]3CCCN3C)nc3c2CCN(c2cccc4cccc(Cl)c24)C3)C[C@@H]1CC#N [adagrasib]
- combination cScore with adagrasib (NCI-H2122 [3]): 12.1
- combination cScore with adagrasib (SW837 [4]): 4.71

SMILES: C[C@@H]1CCN(C(=O)CC#N)C[C@@H]1N(C)c1ncnc2[nH]ccc12 [Tofacitinib citrate] + C=C(F)C(=O)N1CCN(c2nc(OC[C@@H]3CCCN3C)nc3c2CCN(c2cccc4cccc(Cl)c24)C3)C[C@@H]1CC#N [adagrasib]
- combination cScore with adagrasib (NCI-H2122 [3]): -3.58
- combination cScore with adagrasib (SW837 [4]): 5.3

SMILES: CC(C)C[C@@H](C(=O)N[C@H](C(=O)OC1CCCC1)c1ccccc1)[C@H](O)C(=O)NO [Tosedostat] + C=C(F)C(=O)N1CCN(c2nc(OC[C@@H]3CCCN3C)nc3c2CCN(c2cccc4cccc(Cl)c24)C3)C[C@@H]1CC#N [adagrasib]
- combination cScore with adagrasib (NCI-H2122 [3]): 1.4
- combination cScore with adagrasib (SW837 [4]): 19.8

SMILES: CC(=O)Nc1cccc(-n2c(=O)n(C3CC3)c(=O)c3c(Nc4ccc(I)cc4F)n(C)c(=O)c(C)c32)c1 [Trametinib] + C=C(F)C(=O)N1CCN(c2nc(OC[C@@H]3CCCN3C)nc3c2CCN(c2cccc4cccc(Cl)c24)C3)C[C@@H]1CC#N [adagrasib]
- combination cScore with adagrasib (NCI-H2122 [3]): 6.74
- combination cScore with adagrasib (SW837 [4]): 13.6

SMILES: CC1=C(/C=C/C(C)=C/C=C/C(C)=C/C(=O)O)C(C)(C)CCC1 [Tretinoin] + C=C(F)C(=O)N1CCN(c2nc(OC[C@@H]3CCCN3C)nc3c2CCN(c2cccc4cccc(Cl)c24)C3)C[C@@H]1CC#N [adagrasib]
- combination cScore with adagrasib (NCI-H2122 [3]): -2.19
- combination cScore with adagrasib (SW837 [4]): 2.87

SMILES: COc1cc2c(NC3CCN(C(C)C)CC3)nc(C3CCCCC3)nc2cc1OCCCN1CCCC1 [UNC0638] + C=C(F)C(=O)N1CCN(c2nc(OC[C@@H]3CCCN3C)nc3c2CCN(c2cccc4cccc(Cl)c24)C3)C[C@@H]1CC#N [adagrasib]
- combination cScore with adagrasib (NCI-H2122 [3]): 5.77
- combination cScore with adagrasib (SW837 [4]): 13.2

SMILES: CC(C)Nc1cc(-c2c[nH]c(C(=O)N[C@H](CO)c3cccc(Cl)c3)c2)c(Cl)cn1 [Ulixertinib] + C=C(F)C(=O)N1CCN(c2nc(OC[C@@H]3CCCN3C)nc3c2CCN(c2cccc4cccc(Cl)c24)C3)C[C@@H]1CC#N [adagrasib]
- combination cScore with adagrasib (NCI-H2122 [3]): -12.2
- combination cScore with adagrasib (SW837 [4]): 2.22

SMILES: CS(=O)(=O)c1ccc(-c2cnc(N)c(C(=O)Nc3ccccc3)n2)cc1 [VE-821] + C=C(F)C(=O)N1CCN(c2nc(OC[C@@H]3CCCN3C)nc3c2CCN(c2cccc4cccc(Cl)c24)C3)C[C@@H]1CC#N [adagrasib]
- combination cScore with adagrasib (NCI-H2122 [3]): 4.3
- combination cScore with adagrasib (SW837 [4]): 12.8

SMILES: CNCc1ccc(-c2cc(-c3nc(-c4ccc(S(=O)(=O)C(C)C)cc4)cnc3N)on2)cc1 [VE-822/VX-970] + C=C(F)C(=O)N1CCN(c2nc(OC[C@@H]3CCCN3C)nc3c2CCN(c2cccc4cccc(Cl)c24)C3)C[C@@H]1CC#N [adagrasib]
- combination cScore with adagrasib (NCI-H2122 [3]): 3.08
- combination cScore with adagrasib (SW837 [4]): -9.66

SMILES: CCCC(CCC)C(=O)O [Valproic acid] + C=C(F)C(=O)N1CCN(c2nc(OC[C@@H]3CCCN3C)nc3c2CCN(c2cccc4cccc(Cl)c24)C3)C[C@@H]1CC#N [adagrasib]
- combination cScore with adagrasib (NCI-H2122 [3]): -2.93
- combination cScore with adagrasib (SW837 [4]): 2.04

SMILES: C[C@]1(c2nc3c(C(N)=O)cccc3[nH]2)CCCN1 [Veliparib] + C=C(F)C(=O)N1CCN(c2nc(OC[C@@H]3CCCN3C)nc3c2CCN(c2cccc4cccc(Cl)c24)C3)C[C@@H]1CC#N [adagrasib]
- combination cScore with adagrasib (NCI-H2122 [3]): -0.59
- combination cScore with adagrasib (SW837 [4]): 5.64

SMILES: CC[C@]1(O)C[C@@H]2CN(CCc3c([nH]c4ccccc34)[C@@](C(=O)OC)(c3cc4c(cc3OC)N(C)[C@H]3[C@@](O)(C(=O)OC)[C@H](OC(C)=O)[C@]5(CC)C=CCN6CC[C@]43[C@@H]65)C2)C1 [Vinblastine] + C=C(F)C(=O)N1CCN(c2nc(OC[C@@H]3CCCN3C)nc3c2CCN(c2cccc4cccc(Cl)c24)C3)C[C@@H]1CC#N [adagrasib]
- combination cScore with adagrasib (NCI-H2122 [3]): -3.66
- combination cScore with adagrasib (SW837 [4]): 4.5

SMILES: CCC1=C[C@@H]2CN(C1)Cc1c([nH]c3ccccc13)[C@@](C(=O)OC)(c1cc3c(cc1OC)N(C)[C@H]1[C@@](O)(C(=O)OC)[C@H](OC(C)=O)[C@]4(CC)C=CCN5CC[C@]31[C@@H]54)C2 [Vinorelbine] + C=C(F)C(=O)N1CCN(c2nc(OC[C@@H]3CCCN3C)nc3c2CCN(c2cccc4cccc(Cl)c24)C3)C[C@@H]1CC#N [adagrasib]
- combination cScore with adagrasib (NCI-H2122 [3]): -8.58
- combination cScore with adagrasib (SW837 [4]): 3.93

SMILES: CS(=O)(=O)c1ccc(C(=O)Nc2ccc(Cl)c(-c3ccccn3)c2)c(Cl)c1 [Vismodegib] + C=C(F)C(=O)N1CCN(c2nc(OC[C@@H]3CCCN3C)nc3c2CCN(c2cccc4cccc(Cl)c24)C3)C[C@@H]1CC#N [adagrasib]
- combination cScore with adagrasib (NCI-H2122 [3]): 3.61
- combination cScore with adagrasib (SW837 [4]): 15.7

SMILES: O=C(CCCCCCC(=O)Nc1ccccc1)NO [Vorinostat] + C=C(F)C(=O)N1CCN(c2nc(OC[C@@H]3CCCN3C)nc3c2CCN(c2cccc4cccc(Cl)c24)C3)C[C@@H]1CC#N [adagrasib]
- combination cScore with adagrasib (NCI-H2122 [3]): 1.67
- combination cScore with adagrasib (SW837 [4]): 14.9

SMILES: CN[C@H]1CN(c2ccc3c(=O)c(C(=O)O)cn(-c4nccs4)c3n2)C[C@@H]1OC [Vosaroxin] + C=C(F)C(=O)N1CCN(c2nc(OC[C@@H]3CCCN3C)nc3c2CCN(c2cccc4cccc(Cl)c24)C3)C[C@@H]1CC#N [adagrasib]
- combination cScore with adagrasib (NCI-H2122 [3]): 5.97
- combination cScore with adagrasib (SW837 [4]): 4.99

SMILES: COc1cc2nccc(Oc3ccc(NC(=O)C4(C(=O)Nc5ccc(F)cc5)CC4)cc3)c2cc1OC [XL-184] + C=C(F)C(=O)N1CCN(c2nc(OC[C@@H]3CCCN3C)nc3c2CCN(c2cccc4cccc(Cl)c24)C3)C[C@@H]1CC#N [adagrasib]
- combination cScore with adagrasib (NCI-H2122 [3]): 4.53
- combination cScore with adagrasib (SW837 [4]): 9.25
